The numbers were not newly measured in patent US20190160002A1, “PROCESS FOR PREPARING STERILE ARIPIPRAZOLE FORMULATION” (Mylan Laboratories Ltd., priority 2016, published 2019), which cites them from elsewhere.

Take `O=C1CCc2ccc(OCCCCN3CCN(c4cccc(Cl)c4Cl)CC3)cc2N1` [aripiprazole monohydrate]: under “dry heat sterilization”, the “Effect of dry heat sterilization” value was “melted”. The “Effect of gamma-ray and electron beam sterilization” value (gamma-ray and electron beam) is “discolored and decomposed”. For the same compound, the “Effect of steam heat sterilization on particles” value (particles in aqueous suspension, steam heat sterilization) is “tend to agglomerate”.
